Experimental data taken from PubChem BioAssay (NCI).
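Grown in 96-well plates, cells were treated for 48 hours with each compound at five concentrations. Insufficient inhibition: endpoint recorded as highest concentration tested. At the GI50, growth is halved. At the TGI there is no net growth.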

Legend:
Test in all cases: inhibition of tumour cell growth, NCI panel, 48 h
[1] = tested on: OVCAR-5 ovarian
[2] = tested on: OVCAR-8 ovarian
[3] = tested on: NCI-H522 lung
[4] = tested on: K-562 leukemia
[5] = tested on: UACC-62 melanoma
[6] = tested on: MCF7 breast
[7] = tested on: HCT-15 colon
[8] = tested on: SK-OV-3 ovarian
[9] = tested on: TK-10 renal
[10] = tested on: CCRF-CEM leukemia
[11] = tested on: T-47D breast
[12] = tested on: OVCAR-3 ovarian
[13] = tested on: MOLT-4 leukemia
[14] = tested on: SNB-19 CNS
[15] = tested on: NCI-H460 lung
[16] = tested on: MDA-MB-231 breast
[17] = tested on: A549 NSCLC
[18] = tested on: SR leukemia
[19] = tested on: MDA-MB-435
[20] = tested on: SF-268 CNS
[21] = tested on: RPMI-8226 leukemia
[22] = tested on: SW-620 colon
[23] = tested on: PC-3 prostate
[24] = tested on: U251 CNS
[25] = tested on: CAKI-1 renal
[26] = tested on: NCI-H23 lung
[27] = tested on: UACC-257 melanoma
[28] = tested on: SK-MEL-2 melanoma
[29] = tested on: SN12C renal
[30] = tested on: HOP-62 NSCLC
[31] = tested on: UO-31 renal
[32] = tested on: ACHN renal
[33] = tested on: KM12 colon
[34] = tested on: NCI/ADR-RES ovarian
[35] = tested on: RXF 393 renal
[36] = tested on: SK-MEL-5 melanoma
[37] = tested on: COLO 205 colon
[38] = tested on: HT29 colon
[39] = tested on: SK-MEL-28 melanoma
[40] = tested on: 786-0 renal
[41] = tested on: A498 renal
[42] = tested on: M14 melanoma
[43] = tested on: HS 578T breast
[44] = tested on: HOP-92 NSCLC
[45] = tested on: MALME-3M melanoma
[46] = tested on: EKVX NSCLC
[47] = tested on: SNB-75 CNS
[48] = tested on: BT-549 breast
[49] = tested on: SF-539 CNS
[50] = tested on: HCT-116 colon
[51] = tested on: DU-145 prostate
[52] = tested on: HCC-2998 colon

**Q.** How did the GI50 [1] turn out when `O=C(/C=C/c1cccs1)c1ccc(Cl)cc1Cl` was run?
**A.** 20.1 µM

**Q.** What about the TGI [1] of the same molecule?
**A.** 39 µM

**Q.** And the GI50 [2]?
**A.** 19.4 µM

**Q.** What about the TGI [2] of the same molecule?
**A.** 48.3 µM

**Q.** And the GI50 [3]?
**A.** 17.4 µM

**Q.** And the TGI [3]?
**A.** 36.5 µM

**Q.** What about the GI50 [4] of the same molecule?
**A.** 19.1 µM

**Q.** And the TGI [4]?
**A.** 56.4 µM

**Q.** And the GI50 [5]?
**A.** 13.4 µM

**Q.** What about the TGI [5] of the same molecule?
**A.** 26.4 µM

**Q.** What about the GI50 [6] of the same molecule?
**A.** 18.4 µM

**Q.** What about the TGI [6] of the same molecule?
**A.** 51.6 µM

**Q.** What about the GI50 [7] of the same molecule?
**A.** 14.7 µM

**Q.** And the TGI [7]?
**A.** 32.4 µM

**Q.** What about the GI50 [8] of the same molecule?
**A.** 25.5 µM

**Q.** What about the TGI [8] of the same molecule?
**A.** 55.3 µM

**Q.** And the GI50 [9]?
**A.** 25.3 µM

**Q.** And the TGI [9]?
**A.** 61.1 µM

**Q.** And the GI50 [10]?
**A.** 32.1 µM

**Q.** What about the TGI [10] of the same molecule?
**A.** 97.1 µM

**Q.** And the GI50 [11]?
**A.** 28.6 µM

**Q.** And the TGI [11]?
**A.** > 100 µM

**Q.** What about the GI50 [12] of the same molecule?
**A.** 19 µM

**Q.** And the TGI [12]?
**A.** 36.4 µM

**Q.** What about the GI50 [13] of the same molecule?
**A.** 18.8 µM

**Q.** And the TGI [13]?
**A.** 51.9 µM

**Q.** And the GI50 [14]?
**A.** 24 µM

**Q.** And the TGI [14]?
**A.** 64.2 µM

**Q.** And the GI50 [15]?
**A.** 18 µM

**Q.** And the TGI [15]?
**A.** 37.1 µM

**Q.** And the GI50 [16]?
**A.** 14.3 µM

**Q.** What about the TGI [16] of the same molecule?
**A.** 28.1 µM

**Q.** What about the GI50 [17] of the same molecule?
**A.** 17.3 µM

**Q.** What about the TGI [17] of the same molecule?
**A.** 36.4 µM

**Q.** And the GI50 [18]?
**A.** 15 µM

**Q.** And the TGI [18]?
**A.** 77.3 µM

**Q.** What about the GI50 [19] of the same molecule?
**A.** 17.7 µM

**Q.** What about the TGI [19] of the same molecule?
**A.** 35.2 µM

**Q.** And the GI50 [20]?
**A.** 19.1 µM

**Q.** And the TGI [20]?
**A.** 39 µM

**Q.** And the GI50 [21]?
**A.** 27.7 µM

**Q.** What about the TGI [21] of the same molecule?
**A.** > 100 µM

**Q.** What about the GI50 [22] of the same molecule?
**A.** 18.8 µM

**Q.** And the TGI [22]?
**A.** 37.1 µM

**Q.** And the GI50 [23]?
**A.** 33.2 µM

**Q.** What about the TGI [23] of the same molecule?
**A.** > 100 µM

**Q.** What about the GI50 [24] of the same molecule?
**A.** 14.6 µM

**Q.** What about the TGI [24] of the same molecule?
**A.** 28.1 µM

**Q.** And the GI50 [25]?
**A.** 20.9 µM

**Q.** What about the TGI [25] of the same molecule?
**A.** 43.1 µM

**Q.** And the GI50 [26]?
**A.** 17.1 µM

**Q.** What about the TGI [26] of the same molecule?
**A.** 33.6 µM

**Q.** What about the GI50 [27] of the same molecule?
**A.** 16.6 µM

**Q.** And the TGI [27]?
**A.** 31.9 µM

**Q.** What about the GI50 [28] of the same molecule?
**A.** 17.5 µM

**Q.** What about the TGI [28] of the same molecule?
**A.** 35 µM

**Q.** What about the GI50 [29] of the same molecule?
**A.** 16.4 µM

**Q.** What about the TGI [29] of the same molecule?
**A.** 31.2 µM

**Q.** What about the GI50 [30] of the same molecule?
**A.** 19.4 µM

**Q.** And the TGI [30]?
**A.** 37.7 µM

**Q.** What about the GI50 [31] of the same molecule?
**A.** 18.5 µM

**Q.** And the TGI [31]?
**A.** 34.2 µM

**Q.** And the GI50 [32]?
**A.** 17.4 µM

**Q.** And the TGI [32]?
**A.** 31.3 µM

**Q.** What about the GI50 [33] of the same molecule?
**A.** 19.1 µM

**Q.** And the TGI [33]?
**A.** 40 µM

**Q.** And the GI50 [34]?
**A.** 31.4 µM

**Q.** And the TGI [34]?
**A.** > 100 µM

**Q.** And the GI50 [35]?
**A.** 19.4 µM

**Q.** What about the TGI [35] of the same molecule?
**A.** 38.4 µM

**Q.** And the GI50 [36]?
**A.** 15 µM

**Q.** And the TGI [36]?
**A.** 28.8 µM

**Q.** What about the GI50 [37] of the same molecule?
**A.** 27.1 µM

**Q.** What about the TGI [37] of the same molecule?
**A.** 88.9 µM

**Q.** What about the GI50 [38] of the same molecule?
**A.** 28.1 µM

**Q.** What about the TGI [38] of the same molecule?
**A.** > 100 µM

**Q.** What about the GI50 [39] of the same molecule?
**A.** 22.4 µM

**Q.** What about the TGI [39] of the same molecule?
**A.** 52.7 µM

**Q.** What about the GI50 [40] of the same molecule?
**A.** 16.6 µM

**Q.** And the TGI [40]?
**A.** 33.9 µM

**Q.** And the GI50 [41]?
**A.** 17.9 µM

**Q.** And the TGI [41]?
**A.** 32.7 µM

**Q.** And the GI50 [42]?
**A.** 19.8 µM

**Q.** And the TGI [42]?
**A.** 40.5 µM

**Q.** And the GI50 [43]?
**A.** 24.5 µM

**Q.** What about the TGI [43] of the same molecule?
**A.** 55.9 µM

**Q.** What about the GI50 [44] of the same molecule?
**A.** 23.8 µM

**Q.** What about the TGI [44] of the same molecule?
**A.** 61.4 µM

**Q.** What about the GI50 [45] of the same molecule?
**A.** 1.04 µM

**Q.** What about the TGI [45] of the same molecule?
**A.** 19.8 µM

**Q.** And the GI50 [46]?
**A.** 18.6 µM

**Q.** What about the TGI [46] of the same molecule?
**A.** 36.7 µM

**Q.** What about the GI50 [47] of the same molecule?
**A.** 18.1 µM

**Q.** And the TGI [47]?
**A.** 35.9 µM

**Q.** What about the GI50 [48] of the same molecule?
**A.** 19.3 µM

**Q.** What about the TGI [48] of the same molecule?
**A.** 39.9 µM

**Q.** And the GI50 [49]?
**A.** 19.8 µM

**Q.** And the TGI [49]?
**A.** 38.6 µM

**Q.** What about the GI50 [50] of the same molecule?
**A.** 14 µM

**Q.** And the TGI [50]?
**A.** 30.8 µM

**Q.** What about the GI50 [51] of the same molecule?
**A.** 20 µM

**Q.** And the TGI [51]?
**A.** 43.7 µM

**Q.** What about the GI50 [52] of the same molecule?
**A.** 19.2 µM

**Q.** And the TGI [52]?
**A.** 34.8 µM
